This assay deals with hBD-2. It is filed as cell-based, human. The conditions noted are these: skin explant, systemic. From the text: Il est connu de WO 97/45101 que les esters d'α-alkylglucoside peuvent être utilisés comme agent anti-microbien et/ou anti-fongique pour agir en tant que conservateur dans une composition, pour la préserver d'un développement microbien. D'autre part, les propriétés moussantes des esters de méthyl glucose sont décrites dans Desai et al (« Sofw Journal Seife, Oele, Fette, Wachse, Verlag für chemische Industrie » 1991). • Modèle cellulaire : lignée cellulaire HaCat, kératynocytes d'origine humaine, primoculture de kératinocytes humains • Modèle tissulaire : • Explants de peau normale provenant de déchet opératoire de chirurgie esthétique • Explants de gencive normale provenant de déchet opératoire de chirurgie implantatoire ou d'épithélium gingival reconstruit à partir de cellules épithéliales orales primaires • ➢ Les cellules HaCat sont ensemencées et cultivées en plaque 6 puits à 200 000 cellules/puits sous un volume de 2 ml de milieu de culture DMEM 1640 : (Ref: Invitrogen) complémenté par 10 % de sérum de veau foetal (SVF, Ref : CH30160.02 Perbio-Hyclone) pendant 18 h (sur la nuit). • ➢ A T0 les cellules sont lavées avec du tampon Phosphate (PBS, Ref: 52100-039 Invitrogen) puis privées en sérum pour les rendre quiescentes pendant 24 h (ralentissement de leur croissance et élimination de toute trace de facteurs susceptibles de perturber les effets induits par les traitements ultérieurs). • ➢ A T0+24 h les cellules sont traitées par des cytokines pro-inflammatoires (TNF-α à 10 ng/ml, IL1-β à 10 ng/ml) ou des éléments bactériens (LPS à 50 ng/ml, SEB à 100 ng/ml) ou des actifs potentiels de type « alkyle mono- ou di-ester d'α,β-butylglucoside » dilués dans du DMEM (1 ml/puits); La durée du traitement est de 3 h à 37°C. • ➢ Les kératinocytes primaires sont préparés à partir de peau normale provenant de déchet opératoire de chirurgie esthétique. Ils sont ensemencés et cultivés en plaque 24 puits à 60 000 cellules/puits sous un volume de 0,5 ml de milieu de culture KSFM (Ref : 37010 Invitrogen) complémenté par de l'EGF (Epidermal Growth Factor) à 1,5 ng/ml et du BPE (bovine pituitary extract) à 25 µg/ml pendant 24 h. • ➢ A J0, le milieu est remplacé par 0,5 ml de milieu KSFM complet, additionné de 1,2 nM de calcium. • ➢ A J+3, les cellules sont traitées par des cytokines pro-inflammatoires TNF-α et IL 1-β à 10 ng/ml ou des actifs potentiels de type « alkyle mono- ou di-ester d'α,β-butylglucoside » dilués dans 0,3 ml de milieu KSFM complet, en présence de 1,2 nM de calcium. […]

For laurate de butylglucoside [αβ-LBG brut], the “incubation time from which hBD-2 induction is effective” value is reported as at most 1 h. Moreover, the “synthèse des transcrits hBD-2” value (30 µg/ml, in words) is listed as “capable d'induire la synthèse des transcrits hBD-2”.

The values are drawn from EP1978972B1, “USE OF ALKYLGLUCOSIDE ESTERS AS BETA-DEFENSIN INDUCERS” (Pierre Fabre Dermo-Cosmétique, priority 2006, dated 2007).
